Common to all, as to type: functional
The target of experiment [1] is T1, Apoptotic protease-activating factor 1 (Homo sapiens, UniProt O14727).
T1 sequence (O14727 whole entry): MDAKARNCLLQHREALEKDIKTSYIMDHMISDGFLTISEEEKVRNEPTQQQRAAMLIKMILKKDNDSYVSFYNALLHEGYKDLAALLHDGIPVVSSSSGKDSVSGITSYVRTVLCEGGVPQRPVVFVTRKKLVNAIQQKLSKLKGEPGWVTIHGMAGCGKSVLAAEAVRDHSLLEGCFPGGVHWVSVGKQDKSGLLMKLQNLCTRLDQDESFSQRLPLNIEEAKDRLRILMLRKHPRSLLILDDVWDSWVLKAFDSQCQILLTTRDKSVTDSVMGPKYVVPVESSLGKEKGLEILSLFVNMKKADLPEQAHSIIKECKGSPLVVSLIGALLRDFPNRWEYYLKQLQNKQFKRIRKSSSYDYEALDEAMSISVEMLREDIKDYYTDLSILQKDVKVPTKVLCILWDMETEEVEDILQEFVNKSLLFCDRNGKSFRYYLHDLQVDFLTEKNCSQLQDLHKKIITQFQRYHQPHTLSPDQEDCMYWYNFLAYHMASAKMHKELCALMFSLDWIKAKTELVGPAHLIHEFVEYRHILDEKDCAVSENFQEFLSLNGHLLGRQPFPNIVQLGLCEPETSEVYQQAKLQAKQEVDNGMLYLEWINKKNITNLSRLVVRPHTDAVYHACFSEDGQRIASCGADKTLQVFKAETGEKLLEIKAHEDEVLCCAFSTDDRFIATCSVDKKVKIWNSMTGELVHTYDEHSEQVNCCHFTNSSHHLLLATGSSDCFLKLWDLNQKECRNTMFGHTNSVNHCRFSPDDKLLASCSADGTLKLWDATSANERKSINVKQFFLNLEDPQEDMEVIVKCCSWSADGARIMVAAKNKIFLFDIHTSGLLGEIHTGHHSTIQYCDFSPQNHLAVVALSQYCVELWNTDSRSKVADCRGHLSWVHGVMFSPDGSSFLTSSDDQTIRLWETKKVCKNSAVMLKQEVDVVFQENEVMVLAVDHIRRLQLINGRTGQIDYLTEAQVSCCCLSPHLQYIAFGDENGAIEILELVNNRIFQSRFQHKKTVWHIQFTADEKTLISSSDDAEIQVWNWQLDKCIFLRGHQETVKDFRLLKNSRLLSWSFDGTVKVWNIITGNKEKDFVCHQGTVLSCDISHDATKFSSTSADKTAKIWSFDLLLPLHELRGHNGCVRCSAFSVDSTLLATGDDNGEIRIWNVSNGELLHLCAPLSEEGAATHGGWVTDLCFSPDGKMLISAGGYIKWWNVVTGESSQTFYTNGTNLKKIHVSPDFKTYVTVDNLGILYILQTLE

Experiment [2] can be described thus: THP-1 cell cytotoxicity, dose response, cytotoxicity control for Vif-APOBEC3G degradation inhibitor project, THP-1 cells (AID 1117359). Particulars: Human immunodeficiency virus 1, THP-1.
Experiment [3] deals with Cell division cycle 7-related protein kinase (Homo sapiens, UniProt O00311).
Experiment [4] addresses Cyclin-dependent kinase 8 (Homo sapiens, UniProt P49336). Put plainly: Navigating the Kinome. Panel member name: CDK8.
Experiment [5] concerns the target Cyclin-dependent kinase 1 (Homo sapiens, UniProt P06493).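 Further: Kinome-wide panel profiling, with the target listed as panel member CDC2.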
Experiment [6] has as its target cAMP-dependent protein kinase catalytic subunit PRKX (Homo sapiens, UniProt P51817).
Experiment [7] addresses Mitogen-activated protein kinase kinase kinase 10 (Homo sapiens, UniProt Q02779). Put plainly: Navigating the Kinome. Panel member name: MAP3K10.
Experiment [8] concerns the target Calcium/calmodulin-dependent protein kinase type II subunit delta (Homo sapiens, UniProt Q13557).
The target in experiment [9] is Tyrosine-protein kinase ABL1 (Homo sapiens, UniProt P00519).
Sequence of Tyrosine-protein kinase ABL1 (P00519 whole entry): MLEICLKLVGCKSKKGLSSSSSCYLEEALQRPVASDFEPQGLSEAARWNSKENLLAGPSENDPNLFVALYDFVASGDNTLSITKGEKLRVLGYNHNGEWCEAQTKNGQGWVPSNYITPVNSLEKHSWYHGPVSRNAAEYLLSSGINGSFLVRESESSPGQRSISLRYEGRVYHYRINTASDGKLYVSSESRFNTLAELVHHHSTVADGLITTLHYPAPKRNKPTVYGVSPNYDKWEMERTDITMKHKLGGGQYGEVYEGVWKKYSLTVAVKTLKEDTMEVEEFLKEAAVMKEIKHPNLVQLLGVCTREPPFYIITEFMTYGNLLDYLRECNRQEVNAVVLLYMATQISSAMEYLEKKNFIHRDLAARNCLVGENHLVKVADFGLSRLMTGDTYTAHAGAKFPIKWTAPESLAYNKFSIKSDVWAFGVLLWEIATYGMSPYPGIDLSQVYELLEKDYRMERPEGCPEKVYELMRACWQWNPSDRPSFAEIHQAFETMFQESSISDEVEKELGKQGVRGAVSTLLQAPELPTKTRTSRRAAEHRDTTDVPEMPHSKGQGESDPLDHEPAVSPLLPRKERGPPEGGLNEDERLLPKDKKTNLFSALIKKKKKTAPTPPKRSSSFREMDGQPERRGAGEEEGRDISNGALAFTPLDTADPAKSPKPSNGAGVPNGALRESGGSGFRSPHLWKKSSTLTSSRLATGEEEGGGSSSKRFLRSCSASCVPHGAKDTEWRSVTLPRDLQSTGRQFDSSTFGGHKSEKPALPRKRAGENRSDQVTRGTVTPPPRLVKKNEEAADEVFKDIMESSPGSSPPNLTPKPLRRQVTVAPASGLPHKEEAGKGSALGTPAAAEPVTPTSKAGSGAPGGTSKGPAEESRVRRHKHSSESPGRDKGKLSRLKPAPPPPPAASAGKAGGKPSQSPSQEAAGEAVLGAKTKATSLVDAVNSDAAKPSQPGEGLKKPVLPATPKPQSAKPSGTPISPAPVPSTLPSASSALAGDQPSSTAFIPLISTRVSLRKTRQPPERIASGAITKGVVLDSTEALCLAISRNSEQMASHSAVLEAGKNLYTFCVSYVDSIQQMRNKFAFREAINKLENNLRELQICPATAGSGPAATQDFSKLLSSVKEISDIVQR
Experiment [10] addresses Dual specificity tyrosine-phosphorylation-regulated kinase 4 (Homo sapiens, UniProt Q9NR20).
Experiment [11] addresses Serine/threonine-protein kinase pim-2 (Homo sapiens, UniProt Q9P1W9).
For experiment [12], the target named is RAC-alpha serine/threonine-protein kinase (Homo sapiens, UniProt P31749).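 Further: AKT1 affinity measured as one member of a kinome-wide kinase profiling panel.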
In experiment [13] the target is Tyrosine-protein kinase receptor TYRO3 (Homo sapiens, UniProt Q06418).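 Further: TYRO3 value obtained as one member of a kinome-wide profiling panel.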
The target of experiment [14] is Vascular endothelial growth factor receptor 2 (Homo sapiens, UniProt P35968).
Sequence of Vascular endothelial growth factor receptor 2 (P35968 whole entry): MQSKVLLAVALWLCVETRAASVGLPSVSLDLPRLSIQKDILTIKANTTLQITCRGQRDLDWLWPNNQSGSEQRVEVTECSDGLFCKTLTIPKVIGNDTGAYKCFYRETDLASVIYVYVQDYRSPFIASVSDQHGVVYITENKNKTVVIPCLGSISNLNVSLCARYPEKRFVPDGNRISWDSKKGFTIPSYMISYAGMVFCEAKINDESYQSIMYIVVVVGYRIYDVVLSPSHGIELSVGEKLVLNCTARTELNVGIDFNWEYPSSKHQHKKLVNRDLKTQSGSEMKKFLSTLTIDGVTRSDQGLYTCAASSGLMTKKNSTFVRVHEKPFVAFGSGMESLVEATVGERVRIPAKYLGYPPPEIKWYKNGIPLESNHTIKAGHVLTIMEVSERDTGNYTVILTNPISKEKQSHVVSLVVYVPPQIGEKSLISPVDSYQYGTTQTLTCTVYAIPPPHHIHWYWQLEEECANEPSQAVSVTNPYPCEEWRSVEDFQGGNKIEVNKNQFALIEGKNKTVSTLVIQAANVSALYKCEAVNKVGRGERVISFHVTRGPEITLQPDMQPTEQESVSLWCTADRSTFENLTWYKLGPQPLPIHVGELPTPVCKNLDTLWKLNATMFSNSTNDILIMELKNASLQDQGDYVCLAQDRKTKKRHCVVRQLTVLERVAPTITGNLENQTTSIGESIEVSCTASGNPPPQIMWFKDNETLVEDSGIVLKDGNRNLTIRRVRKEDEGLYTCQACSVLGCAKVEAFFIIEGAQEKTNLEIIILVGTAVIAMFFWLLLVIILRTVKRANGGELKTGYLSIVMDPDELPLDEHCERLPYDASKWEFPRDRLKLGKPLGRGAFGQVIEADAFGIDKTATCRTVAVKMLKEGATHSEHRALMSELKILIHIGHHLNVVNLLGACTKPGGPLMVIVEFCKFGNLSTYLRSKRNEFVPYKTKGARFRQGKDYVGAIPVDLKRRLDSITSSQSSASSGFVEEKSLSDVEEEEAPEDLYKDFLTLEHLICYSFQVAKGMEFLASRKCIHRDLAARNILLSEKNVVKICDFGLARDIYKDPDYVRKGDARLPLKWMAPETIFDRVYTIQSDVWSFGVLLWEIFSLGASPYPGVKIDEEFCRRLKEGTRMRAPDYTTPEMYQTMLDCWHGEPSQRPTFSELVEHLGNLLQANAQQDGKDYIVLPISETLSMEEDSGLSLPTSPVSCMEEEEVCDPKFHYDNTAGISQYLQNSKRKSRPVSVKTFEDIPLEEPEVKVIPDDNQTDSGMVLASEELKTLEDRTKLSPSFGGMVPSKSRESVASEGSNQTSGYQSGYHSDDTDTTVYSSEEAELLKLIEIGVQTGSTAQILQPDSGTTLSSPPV
Experiment [15] has as its target Fibroblast growth factor receptor 1 (Homo sapiens, UniProt P11362).
The target of experiment [16] is Lymphokine-activated killer T-cell-originated protein kinase (Homo sapiens, UniProt Q96KB5).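 Further: value comes from a kinase panel screen in which TOPK was one of the panel members.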
Sequence of Lymphokine-activated killer T-cell-originated protein kinase (Q96KB5 whole entry): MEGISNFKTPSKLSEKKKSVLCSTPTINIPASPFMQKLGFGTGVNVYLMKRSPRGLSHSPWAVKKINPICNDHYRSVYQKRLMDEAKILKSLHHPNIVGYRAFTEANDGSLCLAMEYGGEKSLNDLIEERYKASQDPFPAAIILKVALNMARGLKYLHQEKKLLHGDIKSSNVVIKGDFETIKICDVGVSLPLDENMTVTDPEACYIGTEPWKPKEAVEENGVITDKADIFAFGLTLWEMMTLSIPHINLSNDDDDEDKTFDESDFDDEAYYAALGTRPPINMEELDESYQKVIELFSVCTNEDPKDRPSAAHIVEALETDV
Experiment [17] addresses Dual specificity tyrosine-phosphorylation-regulated kinase 3 (Homo sapiens, UniProt O43781).

Each structure is given as a SMILES string. The source made the active and inactive calls. Where only a bound is given, the exact number is not on record here.

Sequence of Fibroblast growth factor receptor 1 (P11362 whole entry): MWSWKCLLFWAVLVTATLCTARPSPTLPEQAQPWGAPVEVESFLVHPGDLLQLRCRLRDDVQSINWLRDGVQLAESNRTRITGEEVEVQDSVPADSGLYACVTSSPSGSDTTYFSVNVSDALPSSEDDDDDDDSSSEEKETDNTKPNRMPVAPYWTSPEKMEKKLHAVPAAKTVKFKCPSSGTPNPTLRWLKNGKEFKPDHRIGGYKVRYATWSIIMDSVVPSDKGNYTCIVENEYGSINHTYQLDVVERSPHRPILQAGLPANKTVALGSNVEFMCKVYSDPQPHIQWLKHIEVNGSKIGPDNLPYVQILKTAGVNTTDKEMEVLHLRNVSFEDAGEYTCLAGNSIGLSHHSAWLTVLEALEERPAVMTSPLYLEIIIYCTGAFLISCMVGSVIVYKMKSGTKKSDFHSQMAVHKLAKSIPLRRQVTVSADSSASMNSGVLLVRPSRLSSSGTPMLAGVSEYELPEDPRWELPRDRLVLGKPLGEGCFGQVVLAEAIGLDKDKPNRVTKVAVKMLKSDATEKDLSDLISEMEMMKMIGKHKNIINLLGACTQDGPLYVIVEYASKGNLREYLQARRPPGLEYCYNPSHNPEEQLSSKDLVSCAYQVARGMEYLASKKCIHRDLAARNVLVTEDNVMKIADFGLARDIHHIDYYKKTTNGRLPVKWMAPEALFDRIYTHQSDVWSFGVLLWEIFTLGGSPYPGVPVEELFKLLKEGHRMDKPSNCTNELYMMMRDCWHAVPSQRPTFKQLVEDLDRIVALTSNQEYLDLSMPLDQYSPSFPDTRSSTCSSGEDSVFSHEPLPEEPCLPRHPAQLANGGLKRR
Sequence of Cyclin-dependent kinase 8 (P49336 whole entry): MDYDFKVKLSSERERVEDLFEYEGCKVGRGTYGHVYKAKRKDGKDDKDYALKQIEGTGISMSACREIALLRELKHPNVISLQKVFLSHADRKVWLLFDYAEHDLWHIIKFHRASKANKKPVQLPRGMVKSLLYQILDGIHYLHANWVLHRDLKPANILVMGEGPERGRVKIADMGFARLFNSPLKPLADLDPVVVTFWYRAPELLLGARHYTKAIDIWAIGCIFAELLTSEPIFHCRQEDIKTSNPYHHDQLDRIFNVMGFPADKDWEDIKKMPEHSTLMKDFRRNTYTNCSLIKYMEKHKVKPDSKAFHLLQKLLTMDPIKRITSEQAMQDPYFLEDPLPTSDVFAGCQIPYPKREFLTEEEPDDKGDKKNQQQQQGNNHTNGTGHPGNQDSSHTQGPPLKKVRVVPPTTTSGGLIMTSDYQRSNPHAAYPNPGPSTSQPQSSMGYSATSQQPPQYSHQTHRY
Sequence of cAMP-dependent protein kinase catalytic subunit PRKX (P51817 whole entry): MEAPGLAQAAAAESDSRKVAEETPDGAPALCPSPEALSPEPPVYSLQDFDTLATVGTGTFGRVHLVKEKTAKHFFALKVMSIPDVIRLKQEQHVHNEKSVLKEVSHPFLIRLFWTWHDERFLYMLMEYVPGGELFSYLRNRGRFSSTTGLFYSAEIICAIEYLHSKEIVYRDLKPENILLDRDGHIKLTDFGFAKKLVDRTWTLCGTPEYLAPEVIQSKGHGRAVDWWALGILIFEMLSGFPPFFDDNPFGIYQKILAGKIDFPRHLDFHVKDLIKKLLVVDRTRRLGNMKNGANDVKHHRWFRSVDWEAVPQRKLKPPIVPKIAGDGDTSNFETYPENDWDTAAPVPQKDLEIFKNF
Sequence of Cyclin-dependent kinase 1 (P06493 whole entry): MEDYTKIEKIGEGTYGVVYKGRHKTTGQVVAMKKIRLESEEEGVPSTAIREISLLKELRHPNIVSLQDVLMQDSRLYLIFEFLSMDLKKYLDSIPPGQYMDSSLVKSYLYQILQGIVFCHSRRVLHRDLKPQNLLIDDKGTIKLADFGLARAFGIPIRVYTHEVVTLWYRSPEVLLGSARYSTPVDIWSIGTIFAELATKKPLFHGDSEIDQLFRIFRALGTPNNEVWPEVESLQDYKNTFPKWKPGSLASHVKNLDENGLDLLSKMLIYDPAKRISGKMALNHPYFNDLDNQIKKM

By IC50 is commonly meant the concentration at which inhibition is half-maximal. With `CCOC(=O)c1c(NS(=O)(=O)c2ccccc2)n(CCCOC)c2nc3ccccc3nc12`, the IC50 in experiment [1] was 24.2 µM (active).
By CC50 is commonly meant the concentration that lowers cell viability or growth by half. In the case of `COCC/N=c1\scc(-c2cccs2)n1/N=C/c1ccc(O)c(O)c1O`, the CC50 in experiment [2] is 16.5 µM (active).
One may read the Ki as the equilibrium dissociation constant of an inhibitor or competing ligand from its target. With `OC1CCC(Nc2cc(Cl)nc(-c3c[nH]c4ncccc34)n2)CC1` (configuration not stated), the Ki in experiment [3] is 0.001 µM (active); in experiment [4] it was 0.501 µM (active); in [5], 1 µM (active); in experiment [6] it was 0.398 µM (active); in experiment [7], 0.0794 µM (active); in experiment [8], > 1.58 µM (inactive). The Ki was > 0.631 µM (inactive) in experiment [9]; 1.58 µM (active) in [10]; 0.251 µM (active) in [11]; > 5.01 µM (inactive) in [12]; > 2.51 µM (inactive) in experiment [13]; 1.26 µM (active) in experiment [14]. In addition, the Ki in [15] is > 2 µM (inactive); in [16], 3.98 µM (active); in experiment [17], 0.0501 µM (active).

Source of the values: ChEMBL document CHEMBL1201862, “PubChem BioAssay data set” (2004).
